# Results from the CheMixHub ionic liquid set.
# ± gives the uncertainty stated by the source.
# Experiment: xn = mol fraction of the nth substance listed
# Settings: 100 kPa
smiles,measurement,setting,value
CC[N+](CC)(CC)CC.F[B-](F)(F)F + CC#N,viscosity,"293.15 K, x1 = 0.004202",0.42 ± 0.009 mPa·s
same,viscosity,"293.15 K, x1 = 0.008244",0.438 ± 0.009 mPa·s
same,viscosity,"293.15 K, x1 = 0.01214",0.455 ± 0.01 mPa·s
same,viscosity,"293.15 K, x1 = 0.0162",0.474 ± 0.01 mPa·s
same,electrical conductivity,"293.15 K, x1 = 0.02",2.88 ± 0.058 S/m
same,viscosity,"293.15 K, x1 = 0.0201",0.484 ± 0.01 mPa·s
same,viscosity,"293.15 K, x1 = 0.02405",0.506 ± 0.011 mPa·s
same,viscosity,"293.15 K, x1 = 0.02791",0.531 ± 0.011 mPa·s
same,electrical conductivity,"293.15 K, x1 = 0.0301",3.6 ± 0.072 S/m
same,viscosity,"293.15 K, x1 = 0.03183",0.55 ± 0.012 mPa·s
same,viscosity,"293.15 K, x1 = 0.03568",0.573 ± 0.012 mPa·s
same,viscosity,"293.15 K, x1 = 0.03943",0.593 ± 0.013 mPa·s
same,electrical conductivity,"293.15 K, x1 = 0.0499",4.6 ± 0.092 S/m
same,electrical conductivity,"293.15 K, x1 = 0.0698",5.04 ± 0.1 S/m
same,electrical conductivity,"293.15 K, x1 = 0.08",5.32 ± 0.11 S/m
same,electrical conductivity,"293.15 K, x1 = 0.1",5.56 ± 0.11 S/m
same,electrical conductivity,"293.15 K, x1 = 0.1101",5.58 ± 0.11 S/m
same,viscosity,"298.15 K, x1 = 0.004202",0.401 ± 0.009 mPa·s
same,viscosity,"298.15 K, x1 = 0.008244",0.417 ± 0.009 mPa·s
same,viscosity,"298.15 K, x1 = 0.01214",0.435 ± 0.009 mPa·s
same,viscosity,"298.15 K, x1 = 0.0162",0.452 ± 0.01 mPa·s
same,electrical conductivity,"298.15 K, x1 = 0.02",2.99 ± 0.06 S/m
same,viscosity,"298.15 K, x1 = 0.0201",0.46 ± 0.01 mPa·s
same,viscosity,"298.15 K, x1 = 0.02405",0.48 ± 0.01 mPa·s
same,viscosity,"298.15 K, x1 = 0.02791",0.507 ± 0.011 mPa·s
same,electrical conductivity,"298.15 K, x1 = 0.0301",3.65 ± 0.073 S/m
same,viscosity,"298.15 K, x1 = 0.03183",0.525 ± 0.011 mPa·s
same,viscosity,"298.15 K, x1 = 0.03568",0.546 ± 0.012 mPa·s
same,viscosity,"298.15 K, x1 = 0.03943",0.566 ± 0.012 mPa·s
same,electrical conductivity,"298.15 K, x1 = 0.0499",4.78 ± 0.096 S/m
same,electrical conductivity,"298.15 K, x1 = 0.0698",5.24 ± 0.1 S/m
same,electrical conductivity,"298.15 K, x1 = 0.08",5.59 ± 0.11 S/m
same,electrical conductivity,"298.15 K, x1 = 0.1",5.85 ± 0.12 S/m
same,electrical conductivity,"298.15 K, x1 = 0.1101",5.88 ± 0.12 S/m
same,viscosity,"303.15 K, x1 = 0.004202",0.383 ± 0.008 mPa·s
same,viscosity,"303.15 K, x1 = 0.008244",0.399 ± 0.009 mPa·s
same,viscosity,"303.15 K, x1 = 0.01214",0.415 ± 0.009 mPa·s
same,viscosity,"303.15 K, x1 = 0.0162",0.432 ± 0.009 mPa·s
same,electrical conductivity,"303.15 K, x1 = 0.02",3.11 ± 0.062 S/m
same,viscosity,"303.15 K, x1 = 0.0201",0.438 ± 0.009 mPa·s
same,viscosity,"303.15 K, x1 = 0.02405",0.457 ± 0.01 mPa·s
same,viscosity,"303.15 K, x1 = 0.02791",0.484 ± 0.01 mPa·s
same,electrical conductivity,"303.15 K, x1 = 0.0301",3.74 ± 0.075 S/m
same,viscosity,"303.15 K, x1 = 0.03183",0.501 ± 0.011 mPa·s
same,viscosity,"303.15 K, x1 = 0.03568",0.521 ± 0.011 mPa·s
same,viscosity,"303.15 K, x1 = 0.03943",0.541 ± 0.012 mPa·s
same,electrical conductivity,"303.15 K, x1 = 0.0499",4.98 ± 0.1 S/m
same,electrical conductivity,"303.15 K, x1 = 0.0698",5.48 ± 0.11 S/m
same,electrical conductivity,"303.15 K, x1 = 0.08",5.85 ± 0.12 S/m
same,electrical conductivity,"303.15 K, x1 = 0.1",6.14 ± 0.12 S/m
same,electrical conductivity,"303.15 K, x1 = 0.1101",6.18 ± 0.12 S/m
same,viscosity,"308.15 K, x1 = 0.004202",0.367 ± 0.008 mPa·s
same,viscosity,"308.15 K, x1 = 0.008244",0.381 ± 0.008 mPa·s
same,viscosity,"308.15 K, x1 = 0.01214",0.397 ± 0.008 mPa·s
same,viscosity,"308.15 K, x1 = 0.0162",0.413 ± 0.009 mPa·s
same,electrical conductivity,"308.15 K, x1 = 0.02",3.22 ± 0.064 S/m
same,viscosity,"308.15 K, x1 = 0.0201",0.419 ± 0.009 mPa·s
same,viscosity,"308.15 K, x1 = 0.02405",0.436 ± 0.009 mPa·s
same,viscosity,"308.15 K, x1 = 0.02791",0.463 ± 0.01 mPa·s
same,electrical conductivity,"308.15 K, x1 = 0.0301",3.88 ± 0.078 S/m
same,viscosity,"308.15 K, x1 = 0.03183",0.478 ± 0.01 mPa·s
same,viscosity,"308.15 K, x1 = 0.03568",0.497 ± 0.011 mPa·s
same,viscosity,"308.15 K, x1 = 0.03943",0.517 ± 0.011 mPa·s
same,electrical conductivity,"308.15 K, x1 = 0.0499",5.18 ± 0.1 S/m
same,electrical conductivity,"308.15 K, x1 = 0.0698",5.71 ± 0.11 S/m
same,electrical conductivity,"308.15 K, x1 = 0.08",6.11 ± 0.12 S/m
same,electrical conductivity,"308.15 K, x1 = 0.1",6.43 ± 0.13 S/m
same,electrical conductivity,"308.15 K, x1 = 0.1101",6.48 ± 0.13 S/m
same,viscosity,"313.15 K, x1 = 0.004202",0.352 ± 0.008 mPa·s
same,viscosity,"313.15 K, x1 = 0.008244",0.365 ± 0.008 mPa·s
same,viscosity,"313.15 K, x1 = 0.01214",0.381 ± 0.008 mPa·s
same,viscosity,"313.15 K, x1 = 0.0162",0.396 ± 0.008 mPa·s
same,electrical conductivity,"313.15 K, x1 = 0.02",3.33 ± 0.067 S/m
same,viscosity,"313.15 K, x1 = 0.0201",0.4 ± 0.009 mPa·s
same,viscosity,"313.15 K, x1 = 0.02405",0.417 ± 0.009 mPa·s
same,viscosity,"313.15 K, x1 = 0.02791",0.442 ± 0.009 mPa·s
same,electrical conductivity,"313.15 K, x1 = 0.0301",4.03 ± 0.081 S/m
